Assay results: patent US6716829B2, “Aldosterone antagonist and cyclooxygenase-2 inhibitor combination therapy to prevent or treat inflammation-related cardiovascular disorders” (Pharmacia Corporation, priority 2000, dated 2004)
Several values for one entry are separate records, joined by “and”; a condition that tells them apart may be missing. Equal values may be shown once. Entries after “also recorded” stand apart in the source; their conditions may differ.

Tests used:
Format in all cases: in vivo, Male Sprague-Dawley rats
hydroxyproline = assay: Assay C: myocardial hydroxyproline assay
Protocol: The procedure of Assay B was expanded upon in a further study. […] Myocardial tissue from animals in each treatment group was examined after 7, 14, or 30 days of treatment. […] Lesions were preceded by the expression and progressive upregulation of proinflammatory molecules. […] Prior to surgery the animals were individually weighed and placed in one of the following groups: […] Potassium chloride supplementation was added to the saline solution in order to prevent the potential hypokalemia associated with aldosterone excess. […] Louis, Mo.) was inserted subcutaneously at the nape of the neck. Aldosterone was administered at a dose of 0.75 µg/hour. […] Animals were sacrificed from each group (n=8-13) after 7, 14, or 30 days of treatment. Following exsanguination, hearts and kidneys were isolated, removed, rinsed in cold phosphate-buffered saline, and blotted dry. […] Myocardial hydroxyproline concentration was measured by a […] assay that quantifies the reaction between oxidized hydroxyproline, and p-dimethylaminobenzaldehyde as described previously (4). […] Dried tissues and a positive collagen control (Bovine Collagen Type I, Sigma, St. […] T. Baker, Phillipsburg, N.J.) for 5 min at 25° C. […] Samples were incubated at 60° C. for 30 min, cooled to room temperature, and absorbance was monitored at 558 nm. Hydroxyproline content was quantitated from a freshly prepared standard curve of trans-4-hydroxy-L-proline (Sigma, St. Louis, Mo.). All samples and standards were performed in duplicate.

[1] = test system: monocyte chemoattractant protein-1 (MCP-1); assay: Assay C: MCP-1 mRNA in heart by TaqMan RT-PCR; details: for MCP-1 mRNA (AU): relative to cyclophilin expression, mean ± SEM, eplerenone dose 100 mg/kg/day; for MCP1 (AU): mRNA, individual rats, incl. rat marked * excluded from statistics; for MCP-1 mRNA expression: myocardium, aldosterone + salt, 7, 14, 30 days, eplerenone 100 mg/kg/day
Protocol: (§1) The procedure of Assay B was expanded upon in a further study. […] Myocardial tissue from animals in each treatment group was examined after 7, 14, or 30 days of treatment.
(§2) Potassium chloride supplementation was added to the saline solution in order to prevent the potential hypokalemia associated with aldosterone excess.
(§3) At the time of the surgery, an Alzet 2002 osmotic minipump (Alza Corp., Palo Alto, Calif.) containing either vehicle (9% ethanol/87% propylene glycol/4% dH2O) or 1.0 mg/mL d-aldosterone (Sigma Chemical, St. Louis, Mo.) was inserted subcutaneously at the nape of the neck. Aldosterone was administered at a dose of 0.75 µg/hour. […] Animals were sacrificed from each group (n=8-13) after 7, 14, or 30 days of treatment.
(§4) The fluorogenic 5′-nuclease assay (TaqMan PCR) using Applied Biosystems' 7700 Sequence Detection System (Applied Biosystems, Foster City, Calif.) allowed for real time detection/quantitation of a specific gene by monitoring the increase in fluorescence of a gene-specific, dye-labeled oligonucleotide probe. Probes for target and reference genes were labeled at the 5′-end with a 6-carboxyfluorescein (6FAM) reporter dye and at the 3′-end with a 6-carboxy-N,N,N′,N′-tetramethylrhodamine (TAMRA) quencher dye. When the probe was annealed to the target gene, fluorescence of 6FAM was prevented by the close proximity of TAMRA. The exonuclease activity of Taq polymerase released the dyes from the oligonucleotide probe by displacing the probe from the target sequence resulting in fluorescence excitation in direct proportion to the amount of target message present. Data analysis was performed using the Sequence Detection System software from Applied Biosystems.
(§5) All primers and probes were designed using Primer Express software supplied with the 7700 Sequence Detection System and synthesized by Applied Biosystems. Standard curves using 5-fold dilutions of total RNA (from 200 ng to 320 pg) were performed to determine the efficiency of each primer/probe set in the TaqMan reaction prior to the analysis of the experimental samples. Primer/probe sets were designed from known sequences of rat genes to be analyzed. All target gene values were normalized to a reference gene, constitutively expressed cyclophilin. Primer/probe set sequences can be found in Table 8.
(§6) RNA was extracted from frozen (−80° C.) rat heart tissue using the Totally RNA Isolation Kit (Ambion, Inc., Austin, Tex.). Tissue was crushed using a stainless steel mortar and pestle, which had been chilled to −80° C. and transferred to a dounce homogenizer (Kontes, Vineland, N.J.) containing 3-10 mL cold denaturation buffer. Tissue was homogenized and transferred to a sterile, 15 mL polypropylene centrifuge tube. An equal volume of phenol:chloroform:isoamyl alcohol (25:24:1) was added, samples were shaken vigorously for 1 min, and incubated on ice for at least 15 min. Samples were centrifuged for 30 min at 10,000g. The aqueous phase was removed, 1/10 volume of a sodium acetate solution (3.0 M NaOAc pH 4.5) was added, samples were shaken or inverted for 10 seconds, and acid-phenol (premixed with isoamyl alcohol):chloroform (5:1, Ambion, Inc.) was added at an volume equivalent to the starting sample volume. Samples were shaken vigorously for 1 min, followed by a 15-min incubation on ice, and centrifuged for 30 min at 10,000 g. The aqueous phase removed and placed in a clean polypropylene tube. An equal volume of isopropanol (Sigma, St. Louis, Mo.) was added and the samples were mixed and incubated overnight at −20° C. The samples were centrifuged for 30 min at 10,000 g, the supernatant was removed and the RNA pellet was resuspended in DNAse/RNAse-free water. Samples were frozen at −80° C. for at least 2 hours, thawed on wet ice, and diluted for quantitation.

[2] = test system: Intracellular adhesion molecule-1 (ICAM-1); assay: Assay C: ICAM-1 mRNA in heart by TaqMan RT-PCR; details: for ICAM mRNA (AU): relative to cyclophilin expression, mean ± SEM, eplerenone dose 100 mg/kg/day; for ICAM (AU): mRNA; for ICAM-1 mRNA expression: myocardium, aldosterone + salt, 7, 14, 30 days, eplerenone 100 mg/kg/day
Protocol: as §1, §2, §3, §4, §5, §6

[3] = group mean, data used for Table 15 (14 days of treatment)
[4] = group mean, data used for Table 16 (30 days of treatment)
[5] = mean after 7 days of treatment, eplerenone dose 100 mg/kg/day
[6] = mean after 14 days of treatment, eplerenone dose 100 mg/kg/day
[7] = mean after 30 days of treatment, eplerenone dose 100 mg/kg/day
[8] = group mean, data used for Table 17 (7-day protocol)
[9] = group mean, data used for Table 18 (14-day protocol)
[10] = group mean, data used for Table 19 (30-day protocol)

Structure (SMILES)	Hydroxyproline (hydroxyproline; [3])	Hydroxyproline (hydroxyproline; [4])	Hydroxyproline (hydroxyproline; [5])	Hydroxyproline (hydroxyproline; [6])	Hydroxyproline (hydroxyproline; [7])	MCP-1 mRNA (AU) ([1]; after 7 days of treatment)	MCP-1 mRNA (AU) ([1]; after 14 days of treatment)	MCP-1 mRNA (AU) ([1]; after 30 days of treatment)	MCP-1 mRNA expression [1]	ICAM mRNA (AU) ([2]; after 7 days of treatment)	ICAM mRNA (AU) ([2]; after 14 days of treatment)	ICAM mRNA (AU) ([2]; after 30 days of treatment)	ICAM (AU) [2, 8]	ICAM (AU) [2, 9]	ICAM (AU) [2, 10]	ICAM-1 mRNA expression [2]	further results
C[C@]12CCC(=O)C=C1CC[C@@H]1[C@@H]2[C@@H](O)C[C@]2(C=O)[C@@H](C(=O)CO)CC[C@@H]12 [Aldosterone]	4.04 µg/mg	4.39 µg/mg	2.73 µg/mg	4.04 µg/mg	4.39 µg/mg	2.38 AU	2.76 AU	4.54 AU	significantly increased	1.22 AU	1.47 AU	1.81 AU	1.22 AU	1.47 AU	1.81 AU	upregulated at day 14 and 30	Hydroxyproline (hydroxyproline; individual rats, data used for Table 15 (14 days of treatment), incl. rat marked * excluded from statistics, listed as Aldosterone + salt): 2.89 µg/mg and 2.91 µg/mg and 6.28 µg/mg and 5.63 µg/mg and 4.83 µg/mg and 5.64 µg/mg and 5.29 µg/mg and 2.76 µg/mg and 2.68 µg/mg and 2.60 µg/mg and 3.00 µg/mg and 3.99 µg/mg and 2.73 µg/mg; Hydroxyproline (hydroxyproline; individual rats, data used for Table 16 (30 days of treatment), incl. rat marked * excluded from statistics, listed as Aldosterone + salt): 7.24 µg/mg and 8.01 µg/mg and 3.62 µg/mg and 3.69 µg/mg and 4.00 µg/mg and 3.54 µg/mg and 3.07 µg/mg and 3.25 µg/mg and 3.09 µg/mg; MCP1 (AU) ([1]; data used for Table 17 (7-day protocol), listed as Aldosterone + salt): 2.05 AU and 1.78 AU and 3.06 AU and 2.36 AU and 1.95 AU and 2.33 AU and 3.14 AU and 2.40 AU and 5.17 AU; MCP1 (AU) ([1]; data used for Table 18 (14-day protocol), listed as Aldosterone + salt): 2.42 AU and 1.87 AU and 4.59 AU and 3.19 AU and 3.34 AU and 1.91 AU and 2.50 AU and 2.22 AU and 5.88 AU; MCP1 (AU) ([1]; data used for Table 19 (30-day protocol), listed as Aldosterone + salt): 3.94 AU and 7.19 AU and 1.61 AU and 9.35 AU and 2.30 AU and 2.86 AU; ICAM (AU) ([2]; individual rats, data used for Table 17 (7-day protocol), incl. rat marked * excluded from statistics, listed as Aldosterone + salt): 1.39 AU and 0.80 AU and 1.09 AU and 1.61 AU and 1.11 AU and 1.15 AU and 1.56 AU and 1.06 AU and 1.68 AU; ICAM (AU) ([2]; individual rats, data used for Table 18 (14-day protocol), incl. rat marked * excluded from statistics, listed as Aldosterone + salt): 1.16 AU and 1.18 AU and 1.75 AU and 1.15 AU and 1.91 AU and 1.19 AU and 1.82 AU and 1.57 AU and 1.84 AU; ICAM (AU) ([2]; individual rats, data used for Table 19 (30-day protocol), incl. rat marked * excluded from statistics, listed as Aldosterone + salt): 2.67 AU and 1.63 AU and 1.69 AU and 1.50 AU and 1.54 AU
COC(=O)[C@@H]1CC2=CC(=O)CC[C@]2(C)[C@@]23O[C@@H]2C[C@@]2(C)[C@@H](CC[C@@]24CCC(=O)O4)[C@H]13 [Eplerenone]	4.46 µg/mg	4.10 µg/mg	3.06 µg/mg	4.46 µg/mg	4.10 µg/mg	1.56 AU	1.59 AU	2.29 AU	inhibition; also recorded: significantly reduced	0.83 AU	1.19 AU	1.22 AU	0.83 AU	1.19 AU	1.22 AU	inhibition; also recorded: significantly reduced	Hydroxyproline (hydroxyproline; individual rats, data used for Table 15 (14 days of treatment), incl. rat marked * excluded from statistics, listed as Eplerenone + aldosterone + salt): 2.95 µg/mg and 5.97 µg/mg and 6.52 µg/mg and 5.35 µg/mg and 6.80 µg/mg and 5.32 µg/mg and 2.72 µg/mg and 3.13 µg/mg and 2.41 µg/mg and 2.81 µg/mg and 5.03 µg/mg; Hydroxyproline (hydroxyproline; individual rats, data used for Table 16 (30 days of treatment), incl. rat marked * excluded from statistics, listed as Eplerenone + aldosterone + salt): 5.18 µg/mg and 6.11 µg/mg and 5.17 µg/mg and 6.40 µg/mg and 2.73 µg/mg and 2.84 µg/mg and 2.97 µg/mg and 2.82 µg/mg and 2.72 µg/mg and 5.75 µg/mg; MCP1 (AU) ([1]; data used for Table 17 (7-day protocol), listed as Eplerenone + aldosterone + salt): 2.35 AU and 1.60 AU and 0.85 AU and 0.83 AU and 1.74 AU and 2.38 AU and 0.67 AU and 2.03 AU; MCP1 (AU) ([1]; data used for Table 18 (14-day protocol), listed as Eplerenone + aldosterone + salt): 1.78 AU and 1.37 AU and 1.27 AU and 1.75 AU and 1.60 AU and 1.24 AU (2×) and 1.92 AU and 1.89 AU and 2.21 AU and 1.20 AU; MCP1 (AU) ([1]; data used for Table 19 (30-day protocol), listed as Eplerenone + aldosterone + salt): 2.11 AU (2×) and 1.70 AU and 2.21 AU and 1.38 AU and 2.10 AU and 2.02 AU and 1.43 AU and 5.58 AU and 8.14 AU; ICAM (AU) ([2]; individual rats, data used for Table 17 (7-day protocol), incl. rat marked * excluded from statistics, listed as Eplerenone + aldosterone + salt): 0.91 AU and 0.89 AU (2×) and 0.40 AU and 1.23 AU and 0.58 AU and 1.00 AU; ICAM (AU) ([2]; individual rats, data used for Table 18 (14-day protocol), incl. rat marked * excluded from statistics, listed as Eplerenone + aldosterone + salt): 1.20 AU and 1.36 AU and 0.95 AU and 1.26 AU and 1.56 AU and 0.98 AU (2×) and 1.51 AU and 0.79 AU and 1.72 AU and 0.83 AU; ICAM (AU) ([2]; individual rats, data used for Table 19 (30-day protocol), incl. rat marked * excluded from statistics, listed as Eplerenone + aldosterone + salt): 1.54 AU and 2.06 AU and 1.01 AU and 1.21 AU and 1.26 AU and 1.06 AU and 0.60 AU and 0.99 AU and 2.92 AU
